Assay: reduced viability of parasite-Hsp90 expressing yeast – ATP luminescence, 48 h, cherry-picked samples, anti-malarial Hsp90 inhibitor project, dose response (AID 540268)
Conditions: yeast expressing the parasite Hsp90, ATP luminescence

| Structure (SMILES) | AC50 [µM] |
| --- | --- |
| COc1ccc(-c2cc(C(=O)N3CCN(c4ccccc4F)CC3)c3ccccc3n2)c(OC)c1 | 4.09 |
| NC(=Nc1nc(-c2ccccn2)cc2ccccc12)c1ccccn1 | 3.78 |
| O=C1NC(=S)NC(=O)C1=Cc1ccc(Br)s1 | 4.48 |
